Results taken from the NIST ThermoML archive (doi:10.1021/acs.jced.7b00185).
± gives the expanded uncertainty stated by the source.

Settings: Liquid; for mass density: 298.15 K, 101.33 kPa, Vibrating tube method; for vapor or sublimation pressure: Ebulliometric method (Recirculating still)

| mass density [kg/m3] | vapor or sublimation pressure (336.61 K) [kPa] | vapor or sublimation pressure (344.29 K) [kPa] | vapor or sublimation pressure (350.5 K) [kPa] | vapor or sublimation pressure (355.83 K) [kPa] | vapor or sublimation pressure (360.49 K) [kPa] | vapor or sublimation pressure (363 K) [kPa] | Structure (SMILES) |
| --- | --- | --- | --- | --- | --- | --- | --- |
| 1063.29 ± 0.08 | 40 ± 3.5 | 53.33 ± 3.8 | 66.66 ± 4.6 | 79.99 ± 5.3 | 93.32 ± 5.9 | 101.3 ± 6.4 | COC(=O)OC [dimethyl carbonate] |
| 1028.08 ± 0.1 | – | – | – | – | – | – | CCOC(=O)C(C)O (racemic) [DL-ethyl lactate] |
| 786.56 ± 0.12 | – | – | – | – | – | – | CO [methanol] |
